Test results: patent publication US20230372221A1, “USE OF THIOPYRIDINONE COMPOUNDS FOR PREVENTING THE FORMATION OF CUTANEOUS BLACKHEADS” (L'OREAL, priority 2020, published 2023)

System: oxidation of the L-DOPA under the action of the bacterial extract (intracellular extract of Cutibacterium acnes CIP 53.117)
Assay: In vitro evaluation of the ability to inhibit the development of the colour (absorbance at 475 nm of L-DOPA + Cutibacterium acnes extract)
Assay type: biochemical
Details: for inhibiting the development of the colour (result in words): compared with Reference (absence of treatment); for optical density at 475 nm: 32° C.; for % inhib (percentage of inhibition of the formation of the coloured product): from initial rate of oxidation between 10 and 40 minutes vs reference composition
Source text: This method is based on the measurement of absorbance, over time, carried out directly on a composition formed of a mixture of intracellular extract of bacteria of Cutibacterium acnes type, of 3,4-dihydroxy-L-phenylalanine (L-DOPA) and of a test compound. The measurements are compared with those carried out for a mixture of an intracellular extract of bacteria of Cutibacterium acnes type and of 3,4-dihydroxy-L-phenylalanine (L-DOPA), in the absence of test compound (reference). The method is adapted from a method for the enzymatic assay of the tyrosinase activity (Behbahani et al., Microchemical Journal (1993), 47, 251), which is based on the absorbance properties at 475 nm of a coloured intermediate of the pathway for the biosynthesis of melanin starting from L-DOPA, namely dopachrome, a product of the oxidation of L-DOPA. An intracellular extract of bacteria of Cutibacterium acnes CIP 53.117 type stored at 4° C. in the lyophilized form is suspended in 1×PBS (supplied by Gibco BRL Life Technologies) at a concentration of 6 mg/ml. A solution of L-DOPA at a concentration of 0.5 mg/ml is prepared by bringing together L-DOPA (supplied by Sigma-Aldrich) and milliQ water, so as to have an L-DOPA concentration of 1 mg/ml, then diluting with 1×PBS (Dulbecco's Phosphate Buffered Saline, supplied by Gibco BRL Life Technologies). The mixture of 50 μl of these two solutions and of 100 μl of 1×PBS (Dulbecco's Phosphate Buffered Saline, supplied by Gibco BRL Life Technologies) results in a composition with a total volume of 200 μl containing L-DOPA (at a concentration of 125 μg/ml) and Cutibacterium acnes extract (at a concentration of 1.5 mg/ml). The test compositions and the reference composition are introduced separately into wells of a 96-well microplate suitable for reading in visible spectrophotometry, and placed at a temperature of 32° C. The formation of a coloured product is monitored over time by spectrophotometry. To do this, the absorbance, or optical density (O.D.), is measured at 475 nm from the time 0 to the time 2 hours by means of a Spectra Max M5e reader and the Spectra Max software (the time 0 corresponds to the introduction of the composition into the wells). The ability to inhibit the development of the colour of a given compound was assessed by comparing the absorbance measurements obtained for the test compositions with those obtained for the reference composition. More specifically, the inhibitory effect of the test compound was evaluated by comparing the initial rate of oxidation of the L-DOPA under the action of the bacterial extract at 475 nm for the test composition with that of the reference composition in order to obtain a corresponding percentage of inhibition. In practice, the initial rate (Vi) of the oxidation reaction is calculated from the linear part of the curve of the graph of the absorbance values. As this part lies between 10 and 40 minutes (see the graph in FIG. 1), the initial rate of the oxidation reaction is determined using the following relationship: [formula] The percentage of inhibition (% inhib) of a given compound with regard to the formation of the coloured product is subsequently obtained using the values of the initial rate of the oxidation reaction for the reference composition (Viref) and for the test composition ([…]) according to the following relationship: [formula] Within the meaning of the invention, a compound is regarded as having an inhibitory effect if the % inhib value is at least 15%.

[1] = test compound 12.5 μM, duration 0 minutes
[2] = test compound 12.5 μM, duration 10 minutes
[3] = test compound 12.5 μM, duration 20 minutes
[4] = test compound 12.5 μM, duration 30 minutes
[5] = test compound 12.5 μM, duration 40 minutes
[6] = test compound 12.5 μM, duration 60 minutes
[7] = test compound 12.5 μM, duration 80 minutes
[8] = test compound 12.5 μM, duration 100 minutes
[9] = test compound 12.5 μM, duration 120 minutes
[10] = test compound 25 μM, duration 0 minutes
[11] = test compound 25 μM, duration 10 minutes
[12] = test compound 25 μM, duration 20 minutes
[13] = test compound 25 μM, duration 30 minutes
[14] = test compound 25 μM, duration 40 minutes
[15] = test compound 25 μM, duration 60 minutes
[16] = test compound 25 μM, duration 80 minutes
[17] = test compound 25 μM, duration 100 minutes
[18] = test compound 25 μM, duration 120 minutes
[19] = test compound 50 μM, duration 0 minutes
[20] = test compound 50 μM, duration 10 minutes
[21] = test compound 50 μM, duration 20 minutes
[22] = test compound 50 μM, duration 30 minutes
[23] = test compound 50 μM, duration 40 minutes
[24] = test compound 50 μM, duration 60 minutes
[25] = test compound 50 μM, duration 80 minutes
[26] = test compound 50 μM, duration 100 minutes
[27] = test compound 50 μM, duration 120 minutes
[28] = test compound 100 μM, duration 0 minutes
[29] = test compound 100 μM, duration 10 minutes
[30] = test compound 100 μM, duration 20 minutes
[31] = test compound 100 μM, duration 30 minutes
[32] = test compound 100 μM, duration 40 minutes
[33] = test compound 100 μM, duration 60 minutes
[34] = test compound 100 μM, duration 80 minutes
[35] = test compound 100 μM, duration 100 minutes
[36] = test compound 100 μM, duration 120 minutes

With `CCOC(=O)CN(C)C(=O)c1ccc[nH]c1=S` [Compound 4, Ethyl N-methyl-N-[(2-thioxo-1,2-dihydropyridin-3-yl)carbonyl]glycinate] the “inhibiting the development of the colour (result in words)” value was “very effective”, the “optical density at 475 nm” value [1] was 0.0550 and the “optical density at 475 nm” value [2] was 0.0571. For the same compound, the “optical density at 475 nm” value [3] was 0.0585, the “optical density at 475 nm” value [4] was 0.0604 and the “optical density at 475 nm” value [5] was 0.0627. The “optical density at 475 nm” value [6] was 0.0659, the “optical density at 475 nm” value [7] was 0.0679 and the “optical density at 475 nm” value [8] was 0.0696. The “optical density at 475 nm” value [9] was 0.0709, the “% inhib (percentage of inhibition of the formation of the coloured product)” value (test compound 12.5 μM) was 43% and the “optical density at 475 nm” value [10] was 0.0573. The “optical density at 475 nm” value [11] was 0.0586, the “optical density at 475 nm” value [12] was 0.0595 and the “optical density at 475 nm” value [13] was 0.0609. For the same compound, the “optical density at 475 nm” value [14] was 0.0623, the “optical density at 475 nm” value [15] was 0.0650 and the “optical density at 475 nm” value [16] was 0.0682. For the same compound, the “optical density at 475 nm” value [17] was 0.0695, the “optical density at 475 nm” value [18] was 0.0703 and the “% inhib (percentage of inhibition of the formation of the coloured product)” value (test compound 25 μM) was 63%. The “optical density at 475 nm” value [19] was 0.0558, the “optical density at 475 nm” value [20] was 0.0574 and the “optical density at 475 nm” value [21] was 0.0580. The “optical density at 475 nm” value [22] was 0.0591, the “optical density at 475 nm” value [23] was 0.0599 and the “optical density at 475 nm” value [24] was 0.0617. The “optical density at 475 nm” value [25] was 0.0634, the “optical density at 475 nm” value [26] was 0.0654 and the “optical density at 475 nm” value [27] was 0.0666. The “% inhib (percentage of inhibition of the formation of the coloured product)” value (test compound 50 μM) was 75%, the “optical density at 475 nm” value [28] was 0.0578 and the “optical density at 475 nm” value [29] was 0.0579. The “optical density at 475 nm” value [30] was 0.0593, the “optical density at 475 nm” value [31] was 0.0601 and the “optical density at 475 nm” value [32] was 0.0608. The “optical density at 475 nm” value [33] was 0.0618, the “optical density at 475 nm” value [34] was 0.0623 and the “optical density at 475 nm” value [35] was 0.0627. The “optical density at 475 nm” value [36] was 0.0631 and the “% inhib (percentage of inhibition of the formation of the coloured product)” value (test compound 100 μM) was 71%.
In the case of `CN(CC(=O)O)C(=O)c1ccc[nH]c1=S` [Compound 3, N-methyl-N-[(2-thioxo-1,2-dihydropyridin-3-yl)carbonyl]glycine], the “inhibiting the development of the colour (result in words)” value is reported as “very effective”, the “optical density at 475 nm” value [1] is reported as 0.0555 and the “optical density at 475 nm” value [2] is reported as 0.0565. For the same compound, the “optical density at 475 nm” value [3] was 0.0575, the “optical density at 475 nm” value [4] was 0.0595 and the “optical density at 475 nm” value [5] was 0.0613. The “optical density at 475 nm” value [6] was 0.0647, the “optical density at 475 nm” value [7] was 0.0677 and the “optical density at 475 nm” value [8] was 0.0686. The “optical density at 475 nm” value [9] was 0.0694, the “% inhib (percentage of inhibition of the formation of the coloured product)” value (test compound 12.5 μM) was 39% and the “optical density at 475 nm” value [10] was 0.0549. The “optical density at 475 nm” value [11] was 0.0569, the “optical density at 475 nm” value [12] was 0.0578 and the “optical density at 475 nm” value [13] was 0.0594. For the same compound, the “optical density at 475 nm” value [14] was 0.0607, the “optical density at 475 nm” value [15] was 0.0630 and the “optical density at 475 nm” value [16] was 0.0651. For the same compound, the “optical density at 475 nm” value [17] was 0.0664, the “optical density at 475 nm” value [18] was 0.0677 and the “% inhib (percentage of inhibition of the formation of the coloured product)” value (test compound 25 μM) was 51%. The “optical density at 475 nm” value [19] was 0.0539, the “optical density at 475 nm” value [20] was 0.0561 and the “optical density at 475 nm” value [21] was 0.0575. The “optical density at 475 nm” value [22] was 0.0587, the “optical density at 475 nm” value [23] was 0.0594 and the “optical density at 475 nm” value [24] was 0.0609. For the same compound, the “optical density at 475 nm” value [25] was 0.0623, the “optical density at 475 nm” value [26] was 0.0632 and the “optical density at 475 nm” value [27] was 0.0639. The “% inhib (percentage of inhibition of the formation of the coloured product)” value (test compound 50 μM) was 58%, the “optical density at 475 nm” value [28] was 0.0579 and the “optical density at 475 nm” value [29] was 0.0606. The “optical density at 475 nm” value [30] was 0.0612, the “optical density at 475 nm” value [31] was 0.0619 and the “optical density at 475 nm” value [32] was 0.0623. For the same compound, the “optical density at 475 nm” value [33] was 0.0618, the “optical density at 475 nm” value [34] was 0.0606 and the “optical density at 475 nm” value [35] was 0.0605. The “optical density at 475 nm” value [36] was 0.0609 and the “% inhib (percentage of inhibition of the formation of the coloured product)” value (test compound 100 μM) was 78%.
